Measurements reported in ChEMBL document CHEMBL1201862, “PubChem BioAssay data set” (2004).
Activity calls are given as the source filed them.

Tests used:
Estrogen receptor beta [1] = biological target: T1, Estrogen receptor beta (Homo sapiens, UniProt Q92731); assay: blockers of SRC-3 recruitment to ERβ – biochemical, ELISA, streptavidin-HRP readout, orthogonal assay, confirmation (AID 1060)
[2] = biological target: Induced myeloid leukemia cell differentiation protein Mcl-1 (Homo sapiens, UniProt Q07820); assay type: functional
[3] = biological target: 5-hydroxytryptamine receptor 1A (Homo sapiens, UniProt P08908); assay type: functional
[4] = M. tuberculosis H37Rv growth inhibitors, H37Rv strain (AID 1626); assay type: functional
[5] = viability loss in Vero cells – cytotoxicity control for Vif-APOBEC3G degradation inhibitor project, dose response (AID 1117358); assay type: functional; conditions: Vero
Prothrombin = Prothrombin (Homo sapiens, UniProt P00734); assay: Thrombin 1536 HTS Dose Response Confirmation. [Related pubchem assays: 1046 (Thrombin 1536 HTS; hits were confirmed in this assay)]; assay type: functional
Coagulation factor XII = biological target: T2, Coagulation factor XII (Homo sapiens, UniProt P00748); assay type: functional;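 further: activated factor XIIa alpha cleaving a fluorogenic AMC peptide substrate; inhibitor potency from loss of enzyme activity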
T2 sequence (P00748 whole entry): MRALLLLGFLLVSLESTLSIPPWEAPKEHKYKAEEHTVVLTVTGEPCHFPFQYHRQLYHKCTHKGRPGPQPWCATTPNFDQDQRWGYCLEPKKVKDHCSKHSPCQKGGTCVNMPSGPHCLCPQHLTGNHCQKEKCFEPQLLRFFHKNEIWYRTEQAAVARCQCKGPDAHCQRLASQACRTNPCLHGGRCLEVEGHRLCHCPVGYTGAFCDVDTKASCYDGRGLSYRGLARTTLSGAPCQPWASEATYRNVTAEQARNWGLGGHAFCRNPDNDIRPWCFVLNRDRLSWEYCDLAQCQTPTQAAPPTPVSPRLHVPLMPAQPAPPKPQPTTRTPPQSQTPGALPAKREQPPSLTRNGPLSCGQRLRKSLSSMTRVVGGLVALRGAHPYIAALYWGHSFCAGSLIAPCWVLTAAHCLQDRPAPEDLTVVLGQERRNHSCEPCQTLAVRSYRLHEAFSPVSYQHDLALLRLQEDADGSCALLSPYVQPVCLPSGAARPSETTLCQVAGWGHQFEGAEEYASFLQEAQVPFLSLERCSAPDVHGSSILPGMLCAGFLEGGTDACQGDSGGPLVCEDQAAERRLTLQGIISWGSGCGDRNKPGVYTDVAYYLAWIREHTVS

[6] = biological target: T3, Heat shock factor protein 1 (Mus musculus, UniProt P38532); assay: enhancement of HSF1-driven luciferase signal – cell-based, NIH3T3, luminescence, dose retest, confirmation (AID 435004); assay type: functional;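 further: stress induced by proteasome inhibitor MG132 added 30 min after compound; luciferase reporter driven by HSF1 response element in NIH3T3 cells; actives raise luminescence as potentiators of the MG132 stress response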
T3 sequence (P38532 whole entry): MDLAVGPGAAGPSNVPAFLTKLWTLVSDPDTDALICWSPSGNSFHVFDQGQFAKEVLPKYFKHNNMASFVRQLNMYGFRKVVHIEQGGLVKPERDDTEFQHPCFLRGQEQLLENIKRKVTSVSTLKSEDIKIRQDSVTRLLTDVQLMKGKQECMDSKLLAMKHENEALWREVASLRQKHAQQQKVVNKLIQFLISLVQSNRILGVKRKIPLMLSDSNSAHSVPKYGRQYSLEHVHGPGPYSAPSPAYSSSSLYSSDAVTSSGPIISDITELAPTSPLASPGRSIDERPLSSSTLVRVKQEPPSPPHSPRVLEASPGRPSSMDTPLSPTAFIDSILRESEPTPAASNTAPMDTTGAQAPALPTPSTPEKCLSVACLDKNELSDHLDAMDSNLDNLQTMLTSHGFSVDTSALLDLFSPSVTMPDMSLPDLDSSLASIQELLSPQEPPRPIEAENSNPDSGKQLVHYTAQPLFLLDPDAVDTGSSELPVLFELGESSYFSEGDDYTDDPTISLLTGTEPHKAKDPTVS

INS1 = assay: INS-1E survival protection against cytokine death – cell-based, luminescence, retest, dose response (AID 449756); assay type: functional; conditions: Rattus norvegicus, INS1;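 further: cell death triggered by IL-1 beta plus TNF-alpha plus IFN-gamma mixture; protective hits raise ATP signal compared with cytokine alone wells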
Paired box protein Pax-8 = Paired box protein Pax-8 (Homo sapiens, UniProt Q06710); assay: PAX8 transcriptional activity inhibition in RMG-I – RMG-I cells, luciferase, cherry-pick, dose response (AID 687027); assay type: functional, cell-based;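 further: luciferase reporter driven by Pax8 target thyroperoxidase promoter measured by SteadyGlo luminescence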
[7] = inhibitors acting on PAX2 in cells – cell-based, plate reader, dry powder samples, selectivity assay for PAX8 inhibitor project, dose response (AID 743048); assay type: functional;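 further: HEK293 cells carrying a WT1 promoter luciferase reporter driven by expressed Pax2; potency is for inhibition of Pax2 driven reporter signal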
[8] = OVCAR-3 cell viability loss – plate reader, dry powder samples, PAX8 inhibitor project, dose response (AID 743044); assay type: functional, cell-based
[9] = PAX5 cellular inhibition readout – cell-based, plate reader, dry powder samples, selectivity assay for PAX8 inhibitor project, dose response (AID 743047); assay type: functional;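 further: HEK293 cells carrying a Pax5 driven CD19 promoter luciferase reporter; potency of inhibitors that lower reporter luminescence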
[10] = IGROV1 cell killing – plate reader, dry powder samples, PAX8 inhibitor project, dose response (AID 743043); assay type: functional, cell-based; conditions: IGROV-1
[11] = COV434 cell viability loss – plate reader, dry powder, SA7, cytotoxicity control for PAX8 inhibitor project, dose response (AID 743145); assay type: functional, cell-based
[12] = PAX8-dependent cell viability loss – plate reader, dry powder, dose response (AID 743049); assay type: functional, cell-based
[13] = biological target: T4, Carboxy-terminal domain RNA polymerase II polypeptide A small phosphatase 1 (Homo sapiens, UniProt Q9GZU7); assay: CTDSP1 inhibitors, concentration-response, biochemical, absorbance readout, ultra-high-throughput screen actives (AID 540297); assay type: functional
T4 sequence (Q9GZU7 whole entry): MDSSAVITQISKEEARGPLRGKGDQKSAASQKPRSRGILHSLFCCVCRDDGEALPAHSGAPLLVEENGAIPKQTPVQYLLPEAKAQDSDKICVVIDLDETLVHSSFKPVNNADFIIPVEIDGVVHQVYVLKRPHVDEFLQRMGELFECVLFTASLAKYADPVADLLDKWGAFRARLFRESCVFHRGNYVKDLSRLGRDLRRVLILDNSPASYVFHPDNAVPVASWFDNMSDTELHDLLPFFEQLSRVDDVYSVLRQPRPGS

[14] = Luminescent dose response cell-based high throughput screening assay for inhibitors of the Janus kinase 2 mutant JAK2V617F. [Related pubchem assays: 1446 (Primary screen.), 1521 (Confirmation assay.), 1486 (Counter screen.)]; assay type: functional
[15] = biological target: T5, RNA-binding protein pos-1 (Caenorhabditis elegans, UniProt G5EF15); assay: disruptors of C. elegans POS-1 RNA interaction – biochemical, fluorescence polarization, dose response (AID 1964);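 further: purified POS-1 fused to maltose binding protein made in E. coli; potency of compounds blocking POS-1 binding to fluorescent RNA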
T5 sequence (G5EF15 whole entry): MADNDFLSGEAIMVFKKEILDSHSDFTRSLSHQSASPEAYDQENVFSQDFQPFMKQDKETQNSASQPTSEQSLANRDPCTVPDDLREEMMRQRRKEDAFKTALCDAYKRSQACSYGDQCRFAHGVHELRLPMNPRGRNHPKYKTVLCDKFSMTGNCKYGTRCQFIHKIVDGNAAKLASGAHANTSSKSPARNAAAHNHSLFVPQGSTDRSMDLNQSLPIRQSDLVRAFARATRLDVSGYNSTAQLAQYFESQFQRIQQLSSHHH

[16] = biological target: T6, Zinc finger protein mex-5 (Caenorhabditis elegans, UniProt Q9XUB2); assay: potency of MEX-5 RNA-binding blockers – biochemical, C. elegans, fluorescence polarization, dose response (AID 1960)
T6 sequence (Q9XUB2 whole entry): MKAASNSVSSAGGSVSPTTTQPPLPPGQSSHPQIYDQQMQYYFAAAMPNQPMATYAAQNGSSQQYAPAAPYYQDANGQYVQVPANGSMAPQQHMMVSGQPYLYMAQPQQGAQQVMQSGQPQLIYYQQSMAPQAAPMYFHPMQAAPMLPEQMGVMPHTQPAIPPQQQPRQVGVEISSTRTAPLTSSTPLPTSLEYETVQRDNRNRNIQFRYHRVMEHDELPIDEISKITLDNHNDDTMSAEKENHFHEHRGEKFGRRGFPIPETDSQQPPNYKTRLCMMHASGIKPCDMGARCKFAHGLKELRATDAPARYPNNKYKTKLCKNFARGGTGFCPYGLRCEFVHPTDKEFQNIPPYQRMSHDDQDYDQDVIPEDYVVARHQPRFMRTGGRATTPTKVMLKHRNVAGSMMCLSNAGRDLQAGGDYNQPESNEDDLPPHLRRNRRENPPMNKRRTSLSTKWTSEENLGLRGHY

Estrogen receptor beta [17] = biological target: T1, Estrogen receptor beta
[18] = biological target: Luciferin 4-monooxygenase (Photinus pyralis, UniProt P08659); assay: inhibition of purified Photinus pyralis luciferase – biochemical, luminescence, dose response (AID 1891)
[19] = Luminescence Cell-Based Dose Confirmation HTS to Identify Inhibitors of Platelet Dense Granule Release. [Related pubchem assays: 1663 (Primary HTS), 1678 (Summary of Project)]; assay type: functional
[20] = Fluorescence Cell-Based Dose Response to Identify Inhibitors of Thrombin Receptor-Activating Peptide SFLLRN-Mediated P-Selectin Induction on Platelets. [Related pubchem assays: 1663 (Primary HTS), 1889 (retest at dose ), 1891 (counterscreen), 1678 (Project Summary)]; assay type: functional
[21] = growth inhibition of yeast DHODH-expressing 3D7 parasites – SYBR Green, dry powder samples, dose response (AID 1159570); assay type: functional, cell-based;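 further: parasite growth measured after 72 hours of compound exposure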
[22] = toxicity to human HepG2 hepatoma cells – cell-based, plate reader, dry powder samples, cytotoxicity control, dose response (AID 1159569); assay type: functional;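 further: inhibitor potency with signal falling toward the positive control level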
[23] = Dd2 parasite growth inhibition in erythrocytes – SYBR Green, dry powder samples, set 9, dose response (AID 1159568); assay type: functional, cell-based
[24] = P. falciparum Dd2 growth inhibitors, dose response, SYBR Green, cherry-picked samples (AID 1159567); assay type: functional, cell-based
[25] = Dd2 malaria parasite growth inhibition potency – SYBR Green, dry powder samples, dose response (AID 1159566); assay type: functional, cell-based;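 further: potency for growth inhibition with lower SYBR green DNA signal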
[26] = toxicity to human hepatoma HepG2 cells – cell-based, cherry-picked samples, cytotoxicity control, dose response (AID 1159577); assay type: functional
[27] = Plasmodium falciparum Dd2 Sybr green parasite growth Measured in Cell-Based and Microorganism Combination System Using Plate Reader - 2153-01_Inhibitor_Dose_DryPowder_Activity_Set3.; assay type: functional
[28] = growth inhibition of PfATP4-mutant resistant parasites – NITD609-resistant line, SYBR Green, dry powder, dose response (AID 1159571); assay type: functional, cell-based;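 further: parasites synchronized at ring stage by sorbitol before testing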
[29] = biological target: G-protein coupled receptor 183 (Homo sapiens, UniProt P32249); assay: SAR confirmation of small molecule antagonists of the EBI2 receptor via a luminescent beta-arrestin assa.; assay type: functional
[30] = biological target: Metabotropic glutamate receptor 7 (Homo sapiens, UniProt Q14831); assay: potentiation of glutamate EC20 at mGlu7 – cell-based, calcium mobilization, Galpha15, dose response (AID 743384); assay type: functional
Metabotropic glutamate receptor 7, sequence (Q14831 whole entry): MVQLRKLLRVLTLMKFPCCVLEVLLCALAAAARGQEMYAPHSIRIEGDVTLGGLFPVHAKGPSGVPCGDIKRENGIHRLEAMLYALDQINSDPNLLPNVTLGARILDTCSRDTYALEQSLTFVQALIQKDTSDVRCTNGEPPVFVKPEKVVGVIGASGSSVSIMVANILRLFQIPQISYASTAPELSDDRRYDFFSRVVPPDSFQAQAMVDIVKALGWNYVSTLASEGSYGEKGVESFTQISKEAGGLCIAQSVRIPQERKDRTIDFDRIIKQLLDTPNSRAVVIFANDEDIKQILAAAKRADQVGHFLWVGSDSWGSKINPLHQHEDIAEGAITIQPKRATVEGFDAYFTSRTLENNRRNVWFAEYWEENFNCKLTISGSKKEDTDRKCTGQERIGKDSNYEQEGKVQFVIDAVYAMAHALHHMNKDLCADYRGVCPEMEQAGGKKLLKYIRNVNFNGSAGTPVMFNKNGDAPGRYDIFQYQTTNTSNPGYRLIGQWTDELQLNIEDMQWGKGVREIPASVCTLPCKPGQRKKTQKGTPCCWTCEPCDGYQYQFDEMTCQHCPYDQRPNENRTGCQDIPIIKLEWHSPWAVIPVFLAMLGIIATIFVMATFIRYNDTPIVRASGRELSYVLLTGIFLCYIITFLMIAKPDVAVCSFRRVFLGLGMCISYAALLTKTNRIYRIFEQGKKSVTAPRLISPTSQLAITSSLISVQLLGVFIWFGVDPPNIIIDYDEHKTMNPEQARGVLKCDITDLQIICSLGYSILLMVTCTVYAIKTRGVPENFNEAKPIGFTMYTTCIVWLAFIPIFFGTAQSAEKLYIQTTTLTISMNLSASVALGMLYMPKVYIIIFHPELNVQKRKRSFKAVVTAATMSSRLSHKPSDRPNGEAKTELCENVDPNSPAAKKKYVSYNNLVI

T1 sequence (Q92731 whole entry): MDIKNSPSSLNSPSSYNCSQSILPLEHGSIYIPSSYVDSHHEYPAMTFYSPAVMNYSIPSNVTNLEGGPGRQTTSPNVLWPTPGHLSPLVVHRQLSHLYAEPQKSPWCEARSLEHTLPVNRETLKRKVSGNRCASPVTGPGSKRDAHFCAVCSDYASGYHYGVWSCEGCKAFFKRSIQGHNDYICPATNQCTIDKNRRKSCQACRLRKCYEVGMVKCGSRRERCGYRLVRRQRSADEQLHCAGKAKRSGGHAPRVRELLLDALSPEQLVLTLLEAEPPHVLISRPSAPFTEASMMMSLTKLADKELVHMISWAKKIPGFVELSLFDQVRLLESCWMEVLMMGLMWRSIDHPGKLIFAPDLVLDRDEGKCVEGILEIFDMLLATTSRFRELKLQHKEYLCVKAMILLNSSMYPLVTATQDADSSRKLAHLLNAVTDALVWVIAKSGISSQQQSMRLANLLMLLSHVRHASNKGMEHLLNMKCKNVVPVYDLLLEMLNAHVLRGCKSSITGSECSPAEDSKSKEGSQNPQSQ
G-protein coupled receptor 183, sequence (P32249 whole entry): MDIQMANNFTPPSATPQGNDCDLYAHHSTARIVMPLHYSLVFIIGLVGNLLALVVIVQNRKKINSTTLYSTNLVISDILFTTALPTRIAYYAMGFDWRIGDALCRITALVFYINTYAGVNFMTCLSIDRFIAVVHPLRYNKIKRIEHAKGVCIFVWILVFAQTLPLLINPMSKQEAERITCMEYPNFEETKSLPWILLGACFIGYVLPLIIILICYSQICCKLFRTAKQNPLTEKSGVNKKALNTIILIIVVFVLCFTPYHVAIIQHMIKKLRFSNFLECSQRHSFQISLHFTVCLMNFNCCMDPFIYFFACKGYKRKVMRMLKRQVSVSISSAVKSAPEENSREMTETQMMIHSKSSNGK
5-hydroxytryptamine receptor 1A, sequence (P08908 whole entry): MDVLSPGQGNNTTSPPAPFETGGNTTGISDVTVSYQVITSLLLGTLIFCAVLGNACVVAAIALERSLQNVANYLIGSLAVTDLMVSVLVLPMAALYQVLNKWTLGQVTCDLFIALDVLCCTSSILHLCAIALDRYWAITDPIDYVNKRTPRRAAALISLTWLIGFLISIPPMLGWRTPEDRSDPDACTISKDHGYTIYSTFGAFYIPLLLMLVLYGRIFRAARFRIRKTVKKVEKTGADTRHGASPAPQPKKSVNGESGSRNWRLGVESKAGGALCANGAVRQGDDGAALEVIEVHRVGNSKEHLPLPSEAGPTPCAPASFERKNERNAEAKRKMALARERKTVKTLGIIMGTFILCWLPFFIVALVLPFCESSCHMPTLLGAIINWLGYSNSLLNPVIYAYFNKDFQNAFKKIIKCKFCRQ
Induced myeloid leukemia cell differentiation protein Mcl-1, sequence (Q07820 whole entry): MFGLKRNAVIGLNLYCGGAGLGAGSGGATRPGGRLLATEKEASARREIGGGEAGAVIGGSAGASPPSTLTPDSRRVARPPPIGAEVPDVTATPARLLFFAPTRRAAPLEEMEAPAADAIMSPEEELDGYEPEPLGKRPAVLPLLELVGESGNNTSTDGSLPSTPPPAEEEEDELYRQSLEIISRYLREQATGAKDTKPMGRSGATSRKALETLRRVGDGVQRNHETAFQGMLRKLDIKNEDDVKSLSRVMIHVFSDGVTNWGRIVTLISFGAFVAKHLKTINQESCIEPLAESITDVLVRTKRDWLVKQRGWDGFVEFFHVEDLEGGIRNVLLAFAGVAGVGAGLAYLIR
Luciferin 4-monooxygenase, sequence (P08659 whole entry): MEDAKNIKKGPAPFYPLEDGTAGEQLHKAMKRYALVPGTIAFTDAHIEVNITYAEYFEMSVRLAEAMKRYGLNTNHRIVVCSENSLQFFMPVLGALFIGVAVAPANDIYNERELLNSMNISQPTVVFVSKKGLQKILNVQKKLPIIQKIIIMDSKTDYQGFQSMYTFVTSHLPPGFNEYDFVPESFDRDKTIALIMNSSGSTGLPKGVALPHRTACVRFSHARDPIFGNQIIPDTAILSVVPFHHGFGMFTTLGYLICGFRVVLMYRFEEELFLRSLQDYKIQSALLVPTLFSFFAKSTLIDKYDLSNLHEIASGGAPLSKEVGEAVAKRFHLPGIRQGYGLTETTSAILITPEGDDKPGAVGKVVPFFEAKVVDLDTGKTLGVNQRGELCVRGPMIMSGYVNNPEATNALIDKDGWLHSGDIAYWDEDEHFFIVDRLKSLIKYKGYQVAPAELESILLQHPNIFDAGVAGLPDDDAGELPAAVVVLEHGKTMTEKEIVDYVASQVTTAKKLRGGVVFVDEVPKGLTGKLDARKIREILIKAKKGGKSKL
Paired box protein Pax-8, sequence (Q06710 whole entry): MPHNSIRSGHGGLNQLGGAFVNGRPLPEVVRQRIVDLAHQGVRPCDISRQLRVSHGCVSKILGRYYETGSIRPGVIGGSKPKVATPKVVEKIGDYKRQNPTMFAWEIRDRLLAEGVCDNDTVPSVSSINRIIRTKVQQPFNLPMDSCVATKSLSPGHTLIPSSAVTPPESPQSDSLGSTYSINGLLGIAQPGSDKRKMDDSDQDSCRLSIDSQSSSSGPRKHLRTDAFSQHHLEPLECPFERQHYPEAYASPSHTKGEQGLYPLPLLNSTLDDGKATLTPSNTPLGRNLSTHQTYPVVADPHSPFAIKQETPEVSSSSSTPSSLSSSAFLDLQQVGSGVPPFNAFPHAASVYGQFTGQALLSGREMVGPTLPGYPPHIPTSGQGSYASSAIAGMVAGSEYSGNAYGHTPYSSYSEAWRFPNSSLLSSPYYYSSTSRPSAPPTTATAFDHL

Compound: CC(C)Cn1c(N)c(C(=O)COC(=O)c2cc(-c3ccco3)nc3ccccc23)c(=O)n(C)c1=O
- IC50 (Estrogen receptor beta [1]): > 50 µM (not active)
- IC50 [2]: 2.59 µM (active)

Compound: CC(=O)Nc1ccc(S(=O)(=O)N(C)c2ccc(O)cc2)cc1
- EC50 [3]: > 50 µM (not active)

Compound: NCCc1c[nH]c2ccc(F)cc12
- EC50 [3]: 2.22 µM (active)

Compound: Cc1cccc(Oc2ccc(N)cc2)c1
- IC50 [4]: > 100 µM (active)

Compound: COc1cc(C(=O)NCC(c2ccco2)N2CCCC2)ccc1OCc1c(C)noc1C (configuration not stated)
- CC50 [5]: > 40 µM (active)

Compound: C/C(=C\c1ccccc1)C(=O)n1nnc2ccccc21
- IC50 (Prothrombin): 0.846 µM (active)

Compound: COc1cccc(NC(=S)Nc2ccc(Br)cc2Cl)c1
- IC50 (Prothrombin): > 50 µM (not active)
- IC50 (Coagulation factor XII): > 50 µM (inactive)

Compound: O=C(Nc1ccc(OCC(F)(F)C(F)F)c(C(F)(F)F)c1)c1ccccc1O
- EC50 [6]: 67.4 µM (active)
- AC50 (INS1): 4.78 µM (active)
- AC50 (Paired box protein Pax-8): 7.06 µM (active)
- AC50 [7]: 3.62 µM (active)
- AC50 [8]: 14.8 µM (active)
- AC50 [9]: 6.09 µM (active)
- AC50 [10]: 48.2 µM (active)
- AC50 [11]: 56.2 µM (active)
- AC50 [12]: 17.8 µM (active)

Compound: COc1ccc2nc(O)c(CN(C(=O)NC3CCCCC3)C3CCCCC3)cc2c1
- IC50 [4]: > 100 µM (active)

Compound: N#CC1=C(N)n2c(s/c(=C\c3ccco3)c2=O)=C(C#N)C1c1ccco1 (configuration not stated)
- IC50 (Estrogen receptor beta [1]): 1.92 µM (not active)
- IC50 [13]: 3.44 µM (active)

Compound: Cc1cc(SCC(=O)N/N=C/c2ccc(O)c(O)c2)c(C)cc1Br
- IC50 [14]: 1.65 µM (active)
- EC50 [6]: > 260 µM (inactive)

Compound: ON=C1/C(=N\O)CC2(C/C1=N/O)OCCO2
- EC50 [15]: > 300 µM (not active)
- EC50 [16]: 13 µM (active)
- IC50 (Estrogen receptor beta [17]): 14.1 µM (active)

Compound: CCOc1cc(/C=N/NC(N)=O)cc(Br)c1OCC(=O)Nc1ccccc1C
- EC50 [18]: > 112 µM (not active)
- EC50 [19]: 1.55 µM (active)
- EC50 [20]: < 1 µM (active)

Compound: COc1ccccc1C#Cc1ccc([C@H]2[C@@H](C#N)N(C(=O)C3CCCC3)[C@H]2CO)cc1
- AC50 [21]: 0.715 µM (active)
- AC50 [22]: 23.8 µM (active)
- AC50 [23]: 0.493 µM (active)
- AC50 [24]: 0.873 µM (active)
- AC50 [25]: 0.474 µM (active)
- AC50 [26]: 34.1 µM (active)
- AC50 [27]: 1.16 µM (active)
- AC50 [28]: 0.808 µM (active)

Compound: O=C(/C=C/c1ccc(F)cc1)N1CCN(S(=O)(=O)C2=Cc3ccccc3CC2)CC1
- IC50 [29]: 0.00115 µM (active)

Compound: CC(=O)Nc1ccc(SCC(=O)c2cc(C)n(CC3COc4ccccc4O3)c2C)cc1 (configuration not stated)
- EC50 [30]: 2.6 µM (active)

Compound: CC(C)c1ccc(S(=O)(=O)N2CCN(C(=O)/C=C/c3ccc(F)cc3)CC2)cc1
- IC50 [29]: 0.0243 µM (active)

Compound: CCOc1ccc(-n2c(C)cc(C(=O)CSCc3ccc(OC)cc3)c2C)cc1
- EC50 [30]: 10 µM (active)

Compound: CCCC(=O)Nc1ccc2c(c1)OC[C@@H](C)N(Cc1ccc(F)cc1)C[C@@H](C)[C@H](OC)CN(C)C2=O
- AC50 [21]: 9.67 µM (active)
- AC50 [22]: 75.8 µM (active)
- AC50 [24]: 1.92 µM (active)
- AC50 [25]: 0.753 µM (active)
- AC50 [27]: 2.51 µM (active)
- AC50 [28]: 2.44 µM (active)
